This test concerns L1210 leukemia ip in BDF1 mice, survival T/C. Nature of the test: NCI In Vivo Anticancer Drug Screen. Data for tumor model L1210 Leukemia (intraperitoneal) in B6D2F1 (BDF1) mice. Conditions: endpoint: mean survival time, higher = longer survival. The essentials: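 Tumor was transplanted into mice, which were then dosed with test compound or vehicle alone. Survival was recorded for each group, and the treated figure was expressed relative to the control figure.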

Where [1] appears, read: dose: 100.0 mg/kg/injection, schedule: Q04DX002 (ip), vehicle: Klucel (hydroxypropylcellulose) (HPC).
Where [2] appears, read: dose: 200.0 mg/kg/injection, schedule: Q04DX002 (ip), vehicle: Klucel (hydroxypropylcellulose) (HPC).
Setting [3] is: dose: 400.0 mg/kg/injection, schedule: Q04DX002 (ip), vehicle: Klucel (hydroxypropylcellulose) (HPC).
[4] abbreviates: dose: 100.0 mg/kg/injection, schedule: Q01DX001 (ip), vehicle: carboxymethylcellulose (CMC).
[5] abbreviates: dose: 200.0 mg/kg/injection, schedule: Q01DX001 (ip), vehicle: carboxymethylcellulose (CMC).
The mark [6] stands for this setting: dose: 400.0 mg/kg/injection, schedule: Q01DX001 (ip), vehicle: carboxymethylcellulose (CMC).
Where [7] appears, read: dose: 100.0 mg/kg/injection, schedule: Q04DX003 (ip), vehicle: Klucel (hydroxypropylcellulose) (HPC).
Setting [8] is: dose: 200.0 mg/kg/injection, schedule: Q04DX003 (ip), vehicle: Klucel (hydroxypropylcellulose) (HPC).
The mark [9] stands for this setting: dose: 400.0 mg/kg/injection, schedule: Q04DX003 (ip), vehicle: Klucel (hydroxypropylcellulose) (HPC).
Setting [10] is: dose: 100.0 mg/kg/injection, schedule: Q01DX009 (ip), vehicle: Klucel (hydroxypropylcellulose) (HPC).
The mark [11] stands for this setting: dose: 200.0 mg/kg/injection, schedule: Q01DX009 (ip), vehicle: Klucel (hydroxypropylcellulose) (HPC).
The mark [12] stands for this setting: dose: 100.0 mg/kg/injection, schedule: Q01DX009 (ip), vehicle: saline.
Where [13] appears, read: dose: 50.0 mg/kg/injection, schedule: Q01DX009 (ip), vehicle: Klucel (hydroxypropylcellulose) (HPC).
The mark [14] stands for this setting: dose: 400.0 mg/kg/injection, schedule: Q01DX009 (ip), vehicle: saline.

Several values for one entry are separate records, joined by “and”; a condition that tells them apart may be missing. Identical values can stand only once. Toxic doses and inconclusive results are not listed.

In the case of `O=C1CCC(N2C(=O)C3C4CCC(O4)C3C2=O)C(=O)N1` (stereo not drawn), the T/C reads like this: under setting [1], 103 % of control; (dose: 100.0 mg/kg/injection, schedule: Q04DX003 (ip), vehicle: saline with Tween-80) 96 % of control; under setting [2], 113 % of control; (dose: 200.0 mg/kg/injection, schedule: Q04DX003 (ip), vehicle: saline with Tween-80) 100 % of control; under setting [3], 103 % of control; (dose: 400.0 mg/kg/injection, schedule: Q04DX003 (ip), vehicle: saline with Tween-80) 96 % of control.

For `COc1ccccc1CN1CCCN(Cc2ccccc2OC)C1c1ccccc1`, the T/C is, setting by setting: (dose: 50.0 mg/kg/injection, schedule: Q01DX001 (ip), vehicle: saline) 101 % of control; (dose: 100.0 mg/kg/injection, schedule: Q01DX001 (ip), vehicle: saline) 109 % of control; (dose: 200.0 mg/kg/injection, schedule: Q01DX001 (ip), vehicle: saline) 90 % of control; (dose: 400.0 mg/kg/injection, schedule: Q01DX001 (ip), vehicle: saline) 90 % of control.

Consider `CC(C)(C)C1=CC(C(C)(C)C)CCC1=O` (stereo not drawn), for which the T/C (dose: 100.0 mg/kg/injection, schedule: Q04DX003 (ip), vehicle: acetone) was 98 % of control; the T/C (dose: 200.0 mg/kg/injection, schedule: Q04DX003 (ip), vehicle: acetone) was 102 % of control; the T/C (dose: 400.0 mg/kg/injection, schedule: Q04DX003 (ip), vehicle: acetone) is 92 % of control.

For `CCc1ccc(N=Nc2ccc(CC)cc2)cc1`, the T/C under setting [4] is 98 % of control, the T/C under setting [5] is 106 % of control and the T/C under setting [6] was 101 % of control.

Turning to `Cn1nc(C(N)=O)c2c(N)ncnc21`, the T/C is 96 % of control (dose: 7.5 mg/kg/injection, schedule: Q04DX002 (ip), vehicle: Klucel (hydroxypropylcellulose) (HPC)); 98 % of control (dose: 15.0 mg/kg/injection, schedule: Q01DX001 (ip), vehicle: carboxymethylcellulose (CMC)); 92 % of control (dose: 15.0 mg/kg/injection, schedule: Q04DX002 (ip), vehicle: Klucel (hydroxypropylcellulose) (HPC)); 102 % of control (dose: 30.0 mg/kg/injection, schedule: Q01DX001 (ip), vehicle: carboxymethylcellulose (CMC)); 96 % of control (dose: 30.0 mg/kg/injection, schedule: Q04DX002 (ip), vehicle: Klucel (hydroxypropylcellulose) (HPC)).

Consider `CCOC(=O)c1ccc(C)cc1Nc1ccccc1C(F)(F)F`, for which the T/C runs as follows: under setting [7], 90 % of control; under setting [8], 94 % of control; under setting [9], 95 % of control.

Consider `CCCCCCCC(=O)CC(C)C`, for which the T/C is 109 % of control under setting [10]; 93 % of control under setting [7]; 98 % of control under setting [11]; 96 % of control under setting [8]; 107 % of control (dose: 400.0 mg/kg/injection, schedule: Q01DX009 (ip), vehicle: Klucel (hydroxypropylcellulose) (HPC)); 96 % of control under setting [9].

Take `COC(=O)C(C)CC(C)(C)[N+](=O)[O-]` (stereo not drawn): the T/C reads like this: (dose: 100.0 mg/kg/injection, schedule: Q01DX009 (ip), vehicle: saline with Tween-80) 97 % of control; (dose: 200.0 mg/kg/injection, schedule: Q01DX009 (ip), vehicle: saline with Tween-80) 103 % of control; (dose: 400.0 mg/kg/injection, schedule: Q01DX009 (ip), vehicle: saline with Tween-80) 97 % of control.

For `O=S(=O)(c1ccccc1)C1C2C=CC(O2)C1S(=O)(=O)c1ccccc1` (stereo not drawn), the T/C under setting [1] was 91 % of control, the T/C under setting [2] was 93 % of control and the T/C under setting [3] is 93 % of control.

`CCOP(=S)(S)OCC`: the T/C by setting is: (dose: 100.0 mg/kg/injection, schedule: Q04DX003 (ip), vehicle: saline) 97 % of control and 98 % of control; (dose: 200.0 mg/kg/injection, schedule: Q04DX003 (ip), vehicle: saline) 95 % of control and 93 % of control; (dose: 400.0 mg/kg/injection, schedule: Q04DX003 (ip), vehicle: saline) 98 % of control.

As for `CN(C)CC(C)(C)CN1c2ccccc2Sc2ccccc21`, the T/C is 90 % of control (dose: 3.12 mg/kg/injection, schedule: Q01DX009 (ip), vehicle: saline); 103 % of control (dose: 6.25 mg/kg/injection, schedule: Q01DX009 (ip), vehicle: saline); 101 % of control (dose: 12.5 mg/kg/injection, schedule: Q01DX009 (ip), vehicle: saline); 97 % of control (dose: 25.0 mg/kg/injection, schedule: Q01DX009 (ip), vehicle: saline); 101 % of control (dose: 25.0 mg/kg/injection, schedule: Q04DX003 (ip), vehicle: saline); 106 % of control (dose: 50.0 mg/kg/injection, schedule: Q01DX009 (ip), vehicle: saline). The T/C is 91 % of control (dose: 50.0 mg/kg/injection, schedule: Q04DX003 (ip), vehicle: saline) and 100 % of control under setting [12].

On to `C/C=C/C=C/C(=O)NO`, for which the T/C is, setting by setting: under setting [13], 93 % of control; (dose: 62.0 mg/kg/injection, schedule: Q03HX024 (ip), vehicle: saline) 101 % of control; under setting [10], 102 % of control; (dose: 125.0 mg/kg/injection, schedule: Q03HX024 (ip), vehicle: saline) 94 % of control; (dose: 177.0 mg/kg/injection, schedule: Q01DX009 (ip), vehicle: carboxymethylcellulose (CMC)) 117 % of control; (dose: 177.0 mg/kg/injection, schedule: Q01DX009 (ip), vehicle: saline) 94 % of control. The T/C was 104 % of control under setting [11]; 117 % of control (dose: 266.0 mg/kg/injection, schedule: Q01DX009 (ip), vehicle: saline); 121 % of control under setting [14]; 165 % of control (dose: 600.0 mg/kg/injection, schedule: Q01DX009 (ip), vehicle: saline).

For `O=C(O)CNC(=O)Nc1cccc(Cl)c1`, the T/C reads like this: (dose: 50.0 mg/kg/injection, schedule: Q01DX001 (ip), vehicle: Klucel (hydroxypropylcellulose) (HPC)) 100 % of control; (dose: 100.0 mg/kg/injection, schedule: Q01DX001 (ip), vehicle: Klucel (hydroxypropylcellulose) (HPC)) 105 % of control; (dose: 200.0 mg/kg/injection, schedule: Q01DX001 (ip), vehicle: Klucel (hydroxypropylcellulose) (HPC)) 108 % of control.

Take `CCc1ccc(N=Nc2ccc(N)cc2)cc1`: the T/C under setting [4] is 101 % of control, the T/C under setting [5] was 89 % of control and the T/C under setting [6] is 93 % of control.

Take `COC(=O)C(C)C(C)=O` (stereo not drawn): the T/C by setting is: (dose: 100.0 mg/kg/injection, schedule: Q01DX009 (sc), vehicle: olive oil, sesame oil, peanut oil) 106 % of control; (dose: 100.0 mg/kg/injection, schedule: Q04DX003 (sc), vehicle: olive oil, sesame oil, peanut oil) 98 % of control; (dose: 200.0 mg/kg/injection, schedule: Q01DX009 (sc), vehicle: olive oil, sesame oil, peanut oil) 107 % of control; (dose: 200.0 mg/kg/injection, schedule: Q04DX003 (sc), vehicle: olive oil, sesame oil, peanut oil) 101 % of control; (dose: 400.0 mg/kg/injection, schedule: Q01DX009 (sc), vehicle: olive oil, sesame oil, peanut oil) 106 % of control; (dose: 400.0 mg/kg/injection, schedule: Q04DX003 (sc), vehicle: olive oil, sesame oil, peanut oil) 98 % of control.

On to `[Co+2].[N-]=Cc1ccccc1O.[N-]=Cc1ccccc1O`, for which the T/C by setting is: (dose: 25.0 mg/kg/injection, schedule: Q04DX003 (ip), vehicle: Klucel (hydroxypropylcellulose) (HPC)) 110 % of control; (dose: 50.0 mg/kg/injection, schedule: Q04DX003 (ip), vehicle: Klucel (hydroxypropylcellulose) (HPC)) 113 % of control; under setting [7], 99 % of control and 118 % of control.

For `Cc1cc(C)[nH]n1`, the T/C was 103 % of control under setting [12]; 104 % of control (dose: 200.0 mg/kg/injection, schedule: Q01DX009 (ip), vehicle: saline); 100 % of control under setting [14].

For the compound `O=C(Nc1cccc(C(=O)O)c1)Nc1ccccc1F`, the T/C under setting [13] was 93 % of control, the T/C under setting [10] is 107 % of control and the T/C under setting [11] is 93 % of control.

The values are drawn from PubChem BioAssay AID248 (DTP/NCI, 2004).
